Entries after “also recorded” stand apart in the source; their conditions may differ.
Columns and labels:
[1] = test system: Aβ40; test: ThT fluorescence assay, Aβ40 fibrillation; type: biochemical, human
Method: (§1) ThT fluorescence emission measurements were carried out using a BioTek Synergy H1 multimode microplate reader and Greiner Bio-One non-binding microplates #781906 mainly as described in ref. [11]. […] ThT fluorescence was excited at 440 nm and emission at 485 nm was measured for 190 h every 30 min, with orbital shaking prior to each measurement. […] The lag time, tlag, is calculated as (t0 − 2/kapp).

[2] = test system: Aβ40(A21G); test: ThT fluorescence assay, Aβ40(A21G) fibrillation; type: biochemical, human; details: 20 µM IBU, 20 µM Aβ40(A21G), no HSA, 30 °C, pH 7.4
Method: as §1

[3] = test system: HSA–Aβ interaction
Method: To ensure the monomeric state of Aβ, the non-covalently bound Aβ molecules were thoroughly washed from the chip surface until stabilization of the SPR signal using several water solutions: 2% sodium dodecyl sulfate (SDS), 100 mM HCl, 20 mM ethylenediaminetetraacetic acid (EDTA) pH 8.0 with 1% SDS.
The freeze-dried Aβ samples were dissolved in neat TFA at a concentration of 0.5–1 mg/mL, followed by sonication for 30 s and TFA evaporation using an Eppendorf Concentrator plus. The dried Aβ samples were dissolved in DMSO at a concentration of 2 mg/mL and stored at −20 °C.
The rest of the activated amine groups on the chip surface were blocked by 1 M ethanolamine solution. […] The double-referenced SPR sensograms were analyzed using the heterogeneous ligand model (Equation (1)), assuming presence of two populations of a ligand (L1 and L2) that bind an analyte molecule (A):(1) ka1L1+ A⇌L1Akd1Kd1 ka2L2+ A⇌L2Akd2Kd2 where ka and kd refer to kinetic association and dissociation constants, respectively; Kd1 and Kd2 are equilibrium dissociation constants. The equilibrium and kinetic dissociation/association constants were evaluated for each analyte concentration using Bio-Rad ProteOn Manager™ v.3.1 software (Hercules, CA, USA), followed by averaging of the resulting values (n = 3–4; standard deviations are indicated).

[4] = set-up: method as in PMID 4202799; details: at therapeutic levels; ref [24]; cited from earlier work
[5] = test system: AD; set-up: method as in 2 sources, one per row (each row's own in cited_ref): ref [36],[37],[38] = [36]; PMID 11794217; doi:10.1056/NEJMoa010178; 36. In’T Veld B.A. Ruitenberg A. Hofman A. Launer L.J. Van Duijn C.M. Stijnen T. Breteler M.M. Stricker B.H. Nonsteroidal antiinflammatory drugs and the risk of Alzheimer’s disease N. Engl. J. Med. 20 || [37]; PMID 18458226; doi:10.1212/01.wnl.0000311269.57716.63; 37. Vlad S.C. Miller D.R. Kowall N.W. Felson D.T. Protective effects of NSAIDs on the development of Alzheimer disease Neurology 2008 70 1672 1677 10.1212/01.wnl.0000311269.57716.63 18458226 PMC275824 || [38]; PMID 25227314; doi:10.3233/JAD-141506; 38. Wang J. Tan L. Wang H.F. Tan C.C. Meng X.F. Wang C. Tang S.W. Yu J.T. Anti-inflammatory drugs and risk of Alzheimer’s disease: An updated systematic review and meta-analysis J. Alzheimers Dis. 201 ||| ref [36],[37],[73] = [36]; PMID 11794217; doi:10.1056/NEJMoa010178; 36. In’T Veld B.A. Ruitenberg A. Hofman A. Launer L.J. Van Duijn C.M. Stijnen T. Breteler M.M. Stricker B.H. Nonsteroidal antiinflammatory drugs and the risk of Alzheimer’s disease N. Engl. J. Med. 20 || [37]; PMID 18458226; doi:10.1212/01.wnl.0000311269.57716.63; 37. Vlad S.C. Miller D.R. Kowall N.W. Felson D.T. Protective effects of NSAIDs on the development of Alzheimer disease Neurology 2008 70 1672 1677 10.1212/01.wnl.0000311269.57716.63 18458226 PMC275824 || [73]; PMID 33134914; doi:10.1093/braincomms/fcaa109; 73. Rivers-Auty J. Mather A.E. Peters R. Lawrence C.B. Brough D. Anti-inflammatories in Alzheimer’s disease—potential therapy or spurious correlate? Brain Commun. 2020 2 fcaa109 10.1093/braincomms/fca; details: cited from earlier work
[6] = test system: HSA; details: cited from earlier work
[7] = 20 µM IBU, no HSA, 20 µM Aβ40, 30 °C, Boltzmann sigmoid function, n = 3–5

Structure (SMILES): CC(C)Cc1ccc(C(C)C(=O)O)cc1 (centres unmarked) [IBU, 2-[4-(2-methylpropyl)phenyl]propanoic acid]
- effect of IBU on suppression of Aβ40 fibrillation by HSA ([1]; 20 µM IBU + 2 µM HSA, 20 µM Aβ40, 30 °C, pH 7.4): strengthens the suppression of Aβ40 fibrillation by 2 µM HSA; also recorded: favors the suppression of fibrillation of 20 µM Aβ40 by 2 µM HSA
- decline in tlag in response to IBU ([1]; 20 µM IBU in presence of 2 µM HSA, 20 µM Aβ40, 30 °C, n = 3–5): 21%
- minor opposite effects of IBU on lag phase and rate constant ([1]; 20 µM IBU, 2 µM HSA, 20 µM Aβ40): shortening of the lag phase and decrease in the apparent rate constant of the process
- suppression of fibrillation by IBU alone ([1]; 20 µM IBU, 20 µM Aβ40, no HSA, 30 °C, pH 7.4): does not induce statistically significant suppression of the fibrillation process
- effect on apparent rate constant kapp [1, 7]: did not affect the kapp value
- factor of shortening of lag phase (tlag) [1, 7]: 2
- decrease in apparent rate constant kapp ([1]; combination of 2 µM HSA and 20 µM IBU, 20 µM Aβ40, 30 °C, n = 3–5): 17%
- suppression of fibrillation by IBU alone [2]: does not induce statistically significant suppression of the fibrillation process
- effect of IBU on HSA affinity to Aβ compared with serotonin [3]: lower than the effect for serotonin
- bound to blood plasma proteins [4]: 99%
- rates of AD among people taking IBU for chronic treatment of inflammatory conditions ([5]; ref [36],[37],[73]): lower rates of AD
- AD protection with long-term use of nonsteroidal anti-inflammatory drugs, including IBU ([5]; retrospective studies, ref [36],[37],[38]): protective against AD
- effect of IBU on HSA affinity to heme ([6]; ref [74],[75]): allosterically affect HSA affinity to heme
- effect of IBU binding on HSA affinity to lorazepam ([6]; ref [76]): enhanced its affinity to lorazepam

— PMC9181795, “Ibuprofen Favors Binding of Amyloid-β Peptide to Its Depot, Serum Albumin” (International Journal of Molecular Sciences, 2022)
